Assay results reported in US8932597B2 (priority 2008, dated 2015).

Tests used:
[1] = test system: anti-M2 human monoclonal antibody Z3G1; assay type: binding
HuM2e antibody 23K12 = assay type: binding, human

| Substance | Signal (peptides that bind to Z3G1) [1] | Signal (peptides that bind to 23K21 and 8I10) (HuM2e antibody 23K12) | Signal (peptides that show specific binding to Z3G1) [1] |
| --- | --- | --- | --- |
| 431 (SLLTEVETPIRNEWGCRCNDSTD; epitope peptide) [compound 431] | 2205 | 701 | – |
| 432 (SLLTEVETPIRNEWGCRCNDSVD; epitope peptide) [compound 432] | 2232 | 728 | – |
| 433 (SLLTEVETPIRNEWGCRCNDSWD; epitope peptide) [compound 433] | 2477 | 971 | – |
| 434 (SLLTEVETPIRNEWGCRCNDSYD; epitope peptide) [compound 434] | 2479 | 862 | – |
| 435 (SLLTEVETP; epitope peptide) [compound 435] | 2380 | 899 | – |
| 436 (SLLTEVETPI; epitope peptide) [compound 436] | 2465 | 1084 | – |
| 437 (SLLTEVETPIR; epitope peptide) [compound 437] | 2297 | 1012 | – |
| 438 (SLLTEVETPIRN; epitope peptide) [compound 438] | 2130 | 751 | – |
| 440 (SLLTEVETPIRNEW; epitope peptide) [compound 440] | 2334 | 750 | – |
| 443 (SLLTEVETPIRNEWGCR; epitope peptide) [compound 443] | 2444 | 864 | – |
| 444 (SLLTEVETPIRNEWGCRC; epitope peptide) [compound 444] | 2478 | 898 | – |
| 445 (SLLTEVETPIRNEWGCRCN; epitope peptide) [compound 445] | 2506 | 977 | – |
| 446 (SLLTEVETPIRNEWGCRCND; epitope peptide) [compound 446] | 2276 | 738 | – |
| 447 (SLLTEVETPIRNEWGCRCNDS; epitope peptide) [compound 447] | 2348 | 817 | – |
| 448 (SLLTEVETPIRNEWGCRCNDSS; epitope peptide) [compound 448] | 2325 | 833 | – |
| 449 (SLNTEVETPIRNEWGCRCNDSSD; epitope peptide) [compound 449] | – | 1333 | 1908 |
| 450 (SLLTEVEHPIRNEWGCRCNDSSD; epitope peptide) [compound 450] | – | 1331 | 2241 |
| 451 (CSLLTEVGMSLLTEC; epitope peptide) [compound 451] | 2613 | 1326 | – |
| 452 (SLLTEVGSLLTEC; epitope peptide) [compound 452] | – | 1326 | 1862 |
| 453 (SLLTEVETPIRNEAGCRCNDSSD; epitope peptide) [compound 453] | – | 1311 | 2383 |
